# Patent US20070015733A1, “Aryl Phosphate Derivatives of d4T having Activity Against Resistant HIV Strains” (Parker Hughes Institute, priority 1998, published 2007)
# Read-outs that look alike come from different tables or passages of the source.
# Key:
# [1] = test system: HIV-1 (strain: HTLVIIIB); assay: microbe, parasite or virus in culture; format: cell-based; conditions: PBMNC, read-out: PBMNC IC50 [RT]
# Protocol: (§1) Percent inhibition of viral replication was calculated by comparing the p24 and RT activity values from the test substance-treated infected cells with those from untreated infected cells. In parallel, the cytotoxicity of the compounds was examined using a microculture tetrazolium assay (MTA) of cell proliferation, as described.in the Zarling, Enrice, and Uckun articles Supra).
# (§2) Cellular Assays of Anti-HIV Activity and Cytotoxicity. […] Percent viral inhibition was calculated by comparing the RT activity values from the test substance-treated infected cells with RT values from untreated infected cells (i.e., virus controls).
# [2] = test system: HIV-1 (HTLVIIIB) in TK-deficient CEM T-cells; assay: Inhibition of HIV-1 replication in TK-deficient CEM T-cells (p24 / RT activity); format: cell-based; conditions: TK-deficient CEM T-cells, read-out: CEM IC50 [RT]
# Protocol: as §1, §2
# [3] = test system: NRTI-resistant recombinant HIV-1 isolates; assay: Documented fold decreased susceptibility of recombinant HIV-1 clones; format: cell-based; conditions: for mean reduction in susceptibility: mean over 6 recombinant clones; for median reduction in susceptibility: median over 6 recombinant clones
# [4] = test system: NRTI-resistant recombinant HIV-1 isolates; conditions: cited from earlier work
# [5] = test system: NRTI-resistant recombinant HIV-1 isolates; assay: p24 assay, multi-NRTI-resistant recombinant HIV-1 clones; format: cell-based
# [6] = test system: NRTI-resistant recombinant HIV-1 isolates; assay: RT activity assay, multi-NRTI-resistant recombinant HIV-1 clones; format: cell-based
# [7] = test system: HIV-1 HTLVIIIB; assay: microbe, parasite or virus in culture; conditions: Human immunodeficiency virus 1, PBMC
# Protocol: In vitro assays of anti-HIV-1 activity. Normal human peripheral blood mononuclear cells (PBMNC) from HIV-negative donors were cultured 72 hours in RPMI 1640 supplemented with 20% (v/v) heat-inactivated fetal bovine serum (FBS), 3% interleukin-2, 2 mM L-glutamine, 25 mM HEPES, 2 g/L NaHCO3, […], and […] prior to exposure to HIV-1 at a multiplicity of infection (MOI) of 0.1 during a 1 hour adsorption period at 37° C. in a humidified 5% CO2 atmosphere. Subsequently, cells were cultured in 96-well microtiter plates ([…]; 2×10^6 cells/mL) in the presence of various concentrations of d4T phosphoramidates and aliquots of culture supernatants were removed from the wells on the 7th day after infection for p24 antigen assays, as previously described (Uckun et al., 1998, Antimicrobial Agents and Chem., 42(2):383-388). The applied p24 enzyme immunoassay (EIA) was the unmodified kinetic assay commercially available from Coulter Corporation/Immunotech, Inc. (Westbrooke, Me.), which utilizes a murine mAb to HIV core protein coated onto microwell strips to which the antigen present in the test culture supernatant samples binds. Percent viral inhibition was calculated by comparing the p24 values from untreated infected cells (i.e., virus controls).
# The anti-HIV activity of the compounds was examined by evaluating their ability to inhibit HIV replication in peripheral blood mononuclear cells using previously described procedures (Uckun et al., 1998, Antimicrobial Agents and Chem., 42(2):383-388). Percent inhibition of viral replication was calculated by comparing the p24 antigen levels from the test substance-treated infected cells with those from vehicle-treated infected cells.
# Antiviral susceptibility assays. Phenotypic drug susceptibility studies of HIV-1 isolates and strains were performed by measuring the production of the p24 gag protein in peripheral blood mononuclear cells (PBMC) from seronegative healthy volunteers in the presence of increasing concentrations of the anti-HIV agent using the quantitative Coulter HIV-1 p24 antigen ezyme immunoassay (EIA) and HIV-1 p24 Antigen Kinetic Standard (Beckman Coulter), as previously described (Uckun, 1998, Antimicrobial Agents and Chemotherapy 37(4): 835-38). Informed consent was obtained from the blood donors according to DHHS guidelines using consent forms approved by the Institutional Review Board. In brief, PBMC were cultured for 72 h in RPMI 1640 medium (Gibco) supplemented with 20% (vol/vol) heat-inactivated fetal bovine serum, 5% human interleukin-2 (Zeptometrix), 2 mM L-glutamine, 25 mM HEPES, 2 g/L NaHCO3, 100 U/ml penicillin/streptomycin (Gibco), 50 μg/ml gentamicin (Gibco), and 5 μg/ml phytohemagglutinin-P (PHA-P) (Sigma) for 24-72 hours prior to exposure to HIV at a multiplicity of infection of 0.001-0.1 during a 1-h adsorbtion period at 37±1° C. in a humidified 5-7% CO2 atmosphere. Subsequently, cells were cultured in 96-well microtiter plates (100 μl/well; 2×10^6 cells/ml, triplicate wells) in the presence of the anti-HIV agents at 6-7 different concentrations ranging from 0.0001 μM to 100 μM, and 25 μL aliquots of culture supernatants were removed from the wells on day 6 after infection for p24 EIA, as previously described (Uckun, 1998, Antimicrobial Agents and Chemotherapy, 37(4):835-38). Controls included uninfected and untreated cells (background control) and infected but untreated (virus control) cells. The p24 EIA utilizes a murine monoclonal antibody to HIV core protein used to coat microwell strips to which the antigen present in the test culture supernatant samples binds. Percent inhibition of viral replication was calculated by comparing the p24 values from the test substance-treated infected cells with p24 values from untreated infected cells (i.e., virus controls). The IC50 values were determined using the Statview statistics program (SAS Institute, Inc.).
# [8] = unit not given in Table 5 (0.04 = 40 nM)
# [9] = Human immunodeficiency virus 1, read-out: IC50 (nM), p24, recombinant clone 1617-1 (151 complex)
# [10] = Human immunodeficiency virus 1, read-out: IC50 (nM), p24, recombinant clone 4755-5
# [11] = Human immunodeficiency virus 1, read-out: IC50 (nM), p24, recombinant clone 7295-1
# [12] = Human immunodeficiency virus 1, read-out: IC50 (nM), p24, recombinant clone 7324-1
# [13] = Human immunodeficiency virus 1, read-out: IC50 (nM), p24, recombinant clone 52252-1 in Table 18, 56252-1 in Tables 19 and 20 (K65R, 151 complex)
# [14] = Human immunodeficiency virus 1, read-out: IC50 (nM), p24, recombinant clone printed 52534-1 in Table 18, 52534-2 in Tables 19 and 20 (69 insertion complex)
# [15] = Human immunodeficiency virus 1, read-out: IC50 (nM), RT, recombinant clone 1617-1
# [16] = Human immunodeficiency virus 1, read-out: IC50 (nM), RT, recombinant clone 4755-5
# [17] = Human immunodeficiency virus 1, read-out: IC50 (nM), RT, recombinant clone 7295-1
# [18] = Human immunodeficiency virus 1, read-out: IC50 (nM), RT, recombinant clone 7324-1
# [19] = Human immunodeficiency virus 1, read-out: IC50 (nM), RT, recombinant clone 52534-2
# [20] = Human immunodeficiency virus 1, read-out: IC50 (nM), RT, recombinant clone 56252-1
# [21] = Human immunodeficiency virus 1, read-out: mean IC50, RT, mean over 6 multi-NRTI-resistant clones
compound,measurement,setting,value
3dT-5′-(para-bromophenyl methoxyalaninyl phosphate) [Compound 2d],IC50,[1]; Table 4,1200 nM
same,IC50,[1]; [8],1200 nM
same,IC50,[2]; Table 4,22800 nM
same,IC50,[2]; Table 5,22800 nM
COC(=O)C(C)NP(=O)(OCC1CCC(n2cc(C)c(=O)[nH]c2=O)O1)Oc1ccc(F)cc1 (mixture of isomers) [Compound 2c],IC50,[1]; Table 4,3100 nM
same,IC50,[2]; Table 4,32700 nM
COC(=O)C(C)NP(=O)(OCC1CCC(n2cc(C)c(=O)[nH]c2=O)O1)Oc1ccc([N+](=O)[O-])cc1 (mixture of isomers) [Compound 2e],IC50,[1]; Table 4,2000 nM
same,IC50,[2]; Table 4,22600 nM
COC(=O)[C@H](C)NP(=O)(OC[C@@H]1CC[C@H](n2cc(C)c(=O)[nH]c2=O)O1)Oc1ccccc1 (stereo partly drawn) [Compound 2a],IC50,[1]; Table 4,2100 nM
same,IC50,[1]; [8],2100 nM
same,IC50,[2]; Table 4,7500 nM
same,IC50,[2]; Table 5,7500 nM
"Cc1cn([C@H]2CC[C@@H](CO)O2)c(=O)[nH]c1=O [Compound 3dT, 3′-deoxythymidine]",IC50,"[1]; Human immunodeficiency virus 1, Table 4",700 nM
same,IC50,"[2]; Human immunodeficiency virus 1, T-cell, Table 4",91200 nM
same,IC50,"[2]; Human immunodeficiency virus 1, T-cell, Table 5",91200 nM
COC(=O)C(C)NP(=O)(OCC1OC(n2cc(C)c(=O)[nH]c2=O)CC1N=[N+]=[N-])Oc1ccccc1 (stereo not drawn) [Compound 5a],IC50,[2]; Table 5,1700 nM
COC(=O)C(C)NP(=O)(OCC1OC(n2cc(C)c(=O)[nH]c2=O)CC1N=[N+]=[N-])Oc1ccc(OC)cc1 (stereo not drawn) [Compound 5b],IC50,[1]; [8],100 nM
same,IC50,[2]; Table 5,4100 nM
Nc1nc(NC2CC2)c2ncn([C@H]3C=C[C@@H](CO)C3)c2n1 [abacavir],mean reduction in susceptibility,[3],40 fold
same,median reduction in susceptibility,[3],14.9 fold
same,Fold decreased susceptibility,[4]; recombinant clone 1617-1,>100 fold
same,Fold decreased susceptibility,[4]; recombinant clone 4755-5,7.7 fold
same,Fold decreased susceptibility,[4]; recombinant clone 7295-1,6.1 fold
same,Fold decreased susceptibility,[4]; recombinant clone 7324-1,4.2 fold
same,Fold decreased susceptibility,[4]; recombinant clone 52534-2,22 fold
same,Fold decreased susceptibility,[4]; recombinant clone 56252-1,>100 fold
O=c1[nH]cnc2c1ncn2[C@H]1CC[C@@H](CO)O1 [didanosine],mean reduction in susceptibility,[3],10.1 fold
same,median reduction in susceptibility,[3],2.9 fold
same,Fold decreased susceptibility,[4]; recombinant clone 1617-1,23 fold
same,Fold decreased susceptibility,[4]; recombinant clone 4755-5,2.4 fold
same,Fold decreased susceptibility,[4]; recombinant clone 7295-1,1.9 fold
same,Fold decreased susceptibility,[4]; recombinant clone 7324-1,1.7 fold
same,Fold decreased susceptibility,[4]; recombinant clone 52534-2,3.3 fold
same,Fold decreased susceptibility,[4]; recombinant clone 56252-1,28 fold
CC(C)(C)NC(=O)[C@@H]1CN(Cc2cccnc2)CCN1C[C@@H](O)C[C@@H](Cc1ccccc1)C(=O)N[C@H]1c2ccccc2C[C@H]1O [indinavir],IC50,[5]; [9],20.5 nM
same,IC50,[5]; [10],9.4 nM
same,IC50,[5]; [11],17.2 nM
same,IC50,[5]; [12],21.8 nM
same,IC50,[5]; [13],9 nM
same,IC50,[5]; [14],36.5 nM
same,IC50,[6]; [15],5.2 nM
same,IC50,[6]; [16],4.8 nM
same,IC50,[6]; [17],1.4 nM
same,IC50,[6]; [18],5.7 nM
same,IC50,[6]; [19],12.2 nM
same,IC50,[6]; [20],3.7 nM
same,IC50,[6]; [21],5.5 ± 1.5 nM
Nc1ccn([C@@H]2CS[C@H](CO)O2)c(=O)n1 [lamivudine],IC50,[7],40 ± 25 nM
same,IC90,[7],1820 ± 747 nM
same,IC50,[5]; [9],> 10000 nM
same,IC50,[5]; [10],> 10000 nM
same,IC50,[5]; [11],> 10000 nM
same,IC50,[5]; [12],800 nM
same,IC50,[5]; [13],> 10000 nM
same,IC50,[5]; [14],> 10000 nM
same,IC50,[6]; [15],> 10000 nM
same,IC50,[6]; [16],> 10000 nM
same,IC50,[6]; [17],> 10000 nM
same,IC50,[6]; [18],634 nM
same,IC50,[6]; [19],> 10000 nM
same,IC50,[6]; [20],7210 nM
same,IC50,[6]; [21],7970 ± 1540 nM
same,mean reduction in susceptibility,[3],215.5 fold
same,median reduction in susceptibility,[3],300 fold
C[C@H](Cn1cnc2c(N)ncnc21)OCP(=O)(O)O [tenofovir],mean reduction in susceptibility,[3],4.9 fold
same,median reduction in susceptibility,[3],3.3 fold
same,Fold decreased susceptibility,[4]; recombinant clone 1617-1,2.4 fold
same,Fold decreased susceptibility,[4]; recombinant clone 4755-5,2.3 fold
same,Fold decreased susceptibility,[4]; recombinant clone 7295-1,1.1 fold
same,Fold decreased susceptibility,[4]; recombinant clone 7324-1,8.1 fold
same,Fold decreased susceptibility,[4]; recombinant clone 52534-2,4.2 fold
same,Fold decreased susceptibility,[4]; recombinant clone 56252-1,11 fold
